One test deals with SU-DHL-4 cells. As to the kind of experiment: Inhibitory effect on cell viability in SU-DHL-4 cell line (Test Example 1). In kind it is cell-based, human. The following applies: 72 hours; for pIC50: Homo sapiens, SU-DHL-4 (wild type) cells, calculated using the measurement results of test example 1, read-out: SU-DHL-4 WT IC50; for IC90: SU-DHL-4 cells, Cell Counting Kit-8, concentration showing 90% inhibition of cell viability, read-out: SU-DHL-4 Cell Viability Inhibition Rate IC90. Summed up:
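SU-DHL-4 cells were grown at 37° C. under 5% CO2 in RPMI1640 with 10 vol % heat-inactivated FBS plus penicillin/streptomycin, seeded and precultured for 18 to 25 hours, then exposed to test compound at 0.1 vol % DMSO for 72 hours. Viability was read with Cell Counting Kit-8 by absorbance at 450 nm.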

In another test the test system is DCAF16 KO SU-DHL-4 cells. Kind of test: Inhibitory effect on cell viability using SU-DHL-4 DCAF16 knock out (KO) cell line (Test Example 6). Type of test: cell-based, human. The following applies: for Activity Attenuation Ratio: (SU-DHL-4 DCAF16 KO IC50)/(SU-DHL-4 WT IC50); for pIC50: Homo sapiens, DCAF16 KO SU-DHL-4 cells, 72 hours, Cell Counting Kit-8, 50% inhibition of cell viability. The protocol:
The human DLBCL cell line SU-DHL-4 was purchased from DSMZ. SU-DHL-4 was passaged using RPMI1640 medium containing 10 vol % FBS. After the Cas9 gene was introduced, the cells were cultured in the above medium containing 0.01 mg/mL blasticidin (InvivoGen, Cat No. ant-bl-1). After introduction of sgRNA, the cells were cultured in the above medium containing 0.0001 mg/mL puromycin dihydrochloride (SIGMA, Cat No. P9020-10 ML). The culture conditions were 37° C. and 5% CO2.
Edit-R Lentiviral hEF1α-Blast-Cas9 Nuclease Particles (Cat No. VCAS10126) was used as a lentivirus for expressing Cas9 in human cell lines. Three types of Edit-R Human DCAF16 Lentiviral sgRNA (Cat No. VSGH10142-246568260; DNA target sequence […] (SEQ ID NO: 1), Cat No. VSGH10142-246568262; DNA target sequence […] (SEQ ID NO: 2) and Cat No. VSGH10142-246568263; DNA target sequence […] (SEQ ID NO: 3)) were used as lentiviruses for introducing DCAF16 sgRNA. As a control, Edit-R Lentiviral sgRNA Non-targeting Control #1 (Cat No. VSGC10215) was used. All lentiviruses were purchased from Dharmacon and stored at −80° C. until use.
SU-DHL-4 was suspended at 4×10^5 cells/mL in RPMI 1640 without FBS, 0.25 mL of the suspension was added to a 24-well plate, and the cells were cultured overnight. The next day, 0.003 mL of virus particles of Edit-R Lentiviral hEF1α-Blast-Cas9 Nuclease Particles was added. After culturing in a CO2 incubator for 4 hours, RPMI 1640 containing 0.75 mL of 10 vol % FBS was added. After culturing in a CO2 incubator for about 48 hours, the medium was replaced with RPMI1640 containing 10 vol % FBS, and the cells were cultured in a CO2 incubator. Four days after infection, the medium was replaced with a medium containing 0.01 mg/mL blasticidin (InvivoGen, Cat No. ant-bl-1). Then, the cells were passaged once every 2 to 3 days and thus twice in total (that is, cultured for 1 week) to obtain SU-DHL-4/Cas9, which is a Cas9-introduced SU-DHL-4 cell line.
(6) sgRNA infection SU-DHL-4/Cas9 was suspended at 4×10^5 cells/mL in RPMI 1640 without FBS, 0.25 mL of the suspension was added to a 24-well plate, and the cells were cultured overnight. The next day, a total of 4 types of sgRNA virus particles, 1 type of Control and 3 types targeting DCAF16 were added to the respective wells by 0.03 mL. After culturing in a CO2 incubator for 5 hours, RPMI 1640 containing 0.75 mL of 10 vol % FBS was added.
After culturing in a CO2 incubator for about 48 hours, the medium was replaced with RPMI1640 containing 10 vol % FBS, and the cells were cultured in a CO2 incubator. Four days after infection, the medium was replaced with a medium supplemented with 0.01 mg/mL puromycin dihydrochloride (SIGMA, Cat No. P9020-10 ML). Then, the cells were passaged once or twice a week for 2 weeks, and a cell stock was prepared using CELLBANKER I plus (Takara Bio, Cat No. CB-021). Cell line stock was stored at −80° C. Using Edit-R Lentiviral sgRNA Non-targeting Control #1, the Negative Control sequence was introduced into the SU-DHL-4 cell line, which was referred to as SU-DHL-4 NC strain, and using Edit-R Human DCAF16 Lentiviral sgRNA, […] sequence (SEQ ID NO: 1) was introduced into the SU-DHL-4 cell line, which was referred to as SU-DHL-4 DCAF16 KO1 strain, […] sequence (SEQ ID NO: 2) was introduced into the SU-DHL-4 cell line, which was referred to as SU-DHL-4 DCAF16 KO2 strain, and […] sequence (SEQ ID NO: 3) was introduced into the SU-DHL-4 cell line, which was referred to as SU-DHL-4 DCAF16 KO 3 strain.
The cultured DCAF16 KO SU-DHL-4 cells were seeded at 2000 cells/well in a transparent 384-well plate (Code No. 781182, Greiner bio-one). After seeding, the cells were pre-cultured at 37° C. in a carbon dioxide gas incubator for 18 to 25 hours. […]

We go through ten compounds from patent US20220378923A1, “BET DEGRADER” (KYOWA KIRIN CO., LTD., priority 2019, published 2022).

pIC50: −log10 of the molar value.

By pIC50 is commonly meant −log10 of the IC50, conventionally taken in molar units. As to `CCC(=O)N1c2ccccc2[C@H](Nc2ccc(C(=O)NCCCNC(=O)c3ccc(N[C@@H]4C[C@H](C)N(C(=O)CC)c5ccccc54)cc3)cc2)C[C@@H]1C` (relative stereo) [Compound 1a, N,N′-(Propane-1,3-diyl)bis(4-{[(2S*,4R*)-2-methyl-1-propionyl-1,2,3,4-tetrahydroquinolin-4-yl]amino}benzamide)], the negative-log IC50 (pIC50) was 8.95 in the test with SU-DHL-4 cells and 7.16 in the test with DCAF16 KO SU-DHL-4 cells. Also, in the test with DCAF16 KO SU-DHL-4 cells, the “Activity Attenuation Ratio” value turned out to be 61.

Regarding `CCC(=O)N1c2ccccc2[C@H](Nc2ccc(C(=O)NC3CCN(C(=O)c4ccc(N[C@@H]5C[C@H](C)N(C(=O)CC)c6ccccc65)cc4)CC3)cc2)C[C@@H]1C` (relative stereo) [Compound 1c, 4-{[(2S*,4R*)-2-Methyl-1-propionyl-1,2,3,4-tetrahydroquinolin-4-yl]amino}-N-[1-(4-{[(2S*,4R*)-2-methyl-1-propionyl-1,2,3,4-tetrahydroquinolin-4-yl]amino}benzoyl)piperidin-4-yl]benzamide], the negative logarithm of the IC50 (pIC50) in the test with SU-DHL-4 cells was 8.53. Moreover, in the test with DCAF16 KO SU-DHL-4 cells, the “Activity Attenuation Ratio” value was determined as 131 and the pIC50 was 6.41.

Consider `CCC(=O)N1c2ccccc2[C@H](Nc2ccc(NC(=O)CCNC(=O)c3ccc(N[C@@H]4C[C@H](C)N(C(=O)CC)c5ccccc54)cc3)cc2)C[C@@H]1C` (relative stereo) [Compound 2f, 4-{[(2S,4R)-2-Methyl-1-propionyl-1,2,3,4-tetrahydroquinolin-4-yl]amino}-N-{3-[(4-{[(2S*,4R*)-2-methyl-1-propionyl-1,2,3,4-tetrahydroquinolin-4-yl]amino}phenyl)amino]-3-oxopropyl}benzamide], for which the pIC50 with SU-DHL-4 cells is 10.05. In the test with DCAF16 KO SU-DHL-4 cells, the “Activity Attenuation Ratio” value was found to be 1111 and the negative-log IC50 (pIC50) was 7.00.

As to `CCC(=O)N1c2ccccc2[C@H](Nc2ccc(NC(=O)C3CN(C(=O)c4ccc(N[C@@H]5C[C@H](C)N(C(=O)CC)c6ccccc65)cc4)C3)cc2)C[C@@H]1C` (relative stereo) [Compound 2h, 1-(4-{[(2S,4R)-2-Methyl-1-propionyl-1,2,3,4-tetrahydroquinolin-4-yl]amino}benzoyl)-N-(4-{[(2S*,4R*)-2-methyl-1-propionyl-1,2,3,4-tetrahydroquinolin-4-yl]amino}phenyl)azetidine-3-carboxamide], the negative logarithm of the IC50 (pIC50) in the test on SU-DHL-4 cells is 10.52. Besides, in the test with DCAF16 KO SU-DHL-4 cells, the “Activity Attenuation Ratio” value amounted to 408 and the pIC50 is 7.91.

As to `CCC(=O)N1c2ccccc2[C@H](Nc2ccc(NC(=O)CCSc3ccc(N[C@@H]4C[C@H](C)N(C(=O)CC)c5ccccc54)cc3)cc2)C[C@@H]1C` (relative stereo) [Compound 4e, N-(4-{[(2S*,4R*)-2-Methyl-1-propionyl-1,2,3,4-tetrahydroquinolin-4-yl]amino}phenyl)-3-[(4-{[(2S,4R)-2-methyl-1-propionyl-1,2,3,4-tetrahydroquinolin-4-yl]amino}phenyl)thio]propanamide], the pIC50 in the test on SU-DHL-4 cells was 9.52. Besides, in the test with DCAF16 KO SU-DHL-4 cells, the “Activity Attenuation Ratio” value is 250 and the pIC50 is 7.12.

`CCC(=O)N1c2ccccc2[C@H](Nc2ccc(NC(=O)N3CCN(C(=O)c4ccc(N[C@@H]5C[C@H](C)N(C(=O)CC)c6ccccc65)cc4)CC3)cc2)C[C@@H]1C` (relative stereo) [Compound 6m, 4-(4-(((2S,4R)-2-Methyl-1-propionyl-1,2,3,4-tetrahydroquinolin-4-yl)amino)benzoyl)-N-(4-(((2S*,4R*)-2-methyl-1-propionyl-1,2,3,4-tetrahydroquinolin-4-yl)amino)phenyl)piperazine-1-carboxamide]: the pIC50 with SU-DHL-4 cells was 10.10. In the test with DCAF16 KO SU-DHL-4 cells, the “Activity Attenuation Ratio” value is recorded as 1164 and the pIC50 is 7.04.

For orientation: IC90 means the point of the concentration-response curve where the effect stands at 90%. Turning to `CCC(=O)N1c2ccccc2[C@H](Nc2ccc(C(=O)NCCCNC(=O)c3ccc(C4=N[C@@H](CC(=O)OC(C)(C)C)c5nnc(C)n5-c5sc(C)c(C)c54)cc3)cc2)C[C@@H]1C` [Compound 1h, tert-Butyl 2-[(S)-2,3,9-trimethyl-4-(4-{[3-(4-{[(2S,4R)-2-methyl-1-propionyl-1,2,3,4-tetrahydroquinolin-4-yl]amino}benzamide)propyl]carbamoyl}phenyl)-6H-thieno[3,2-f][1,2,4]triazolo[4,3-a][1,4]diazepin-6-yl]acetate], the 90% effect concentration (IC90) in the test on SU-DHL-4 cells was 0.27 nM.

Consider `Cc1sc2c(c1C)C(c1ccc(C(=O)NCc3cn(-c4ccc(C5=N[C@@H](CC(=O)OC(C)(C)C)c6nnc(C)n6-c6sc(C)c(C)c65)cc4)nn3)cc1)=N[C@@H](CC(=O)OC(C)(C)C)c1nnc(C)n1-2` [Compound 3b, tert-Butyl 2-[(S)-4-(4-{4-[(4-{(S)-6-[2-(tert-butoxy)-2-oxoethyl]-2,3,9-trimethyl-6H-thieno[3,2-f][1,2,4]triazolo[4,3-a][1,4]diazepin-4-yl}benzamide)methyl]-1H-1,2,3-triazol-1-yl}phenyl)-2,3,9-trimethyl-6H-thieno[3,2-f][1,2,4]triazolo[4,3-a][1,4]diazepin-6-yl]acetate], for which the IC90 with SU-DHL-4 cells was found to be 0.18 nM.

For the compound `CCC(=O)N1c2ccccc2[C@H](Nc2ccc(NC(=O)CCCC(=O)Nc3ccc(N[C@@H]4C[C@H](C)N(C(=O)CC)c5ccccc54)cc3)cc2)C[C@@H]1C` [Compound 6k, N^1,N^5-Bis(4-(((2S,4R)-2-methyl-1-propionyl-1,2,3,4-tetrahydroquinolin-4-yl)amino)phenyl)glutaramide], in the test with DCAF16 KO SU-DHL-4 cells, the “Activity Attenuation Ratio” value was 520 and the pIC50 is 7.51.

For the compound `CCC(=O)N1c2ccccc2[C@H](Nc2ccc(-n3cc(CCNC(=O)[C@H]4CC[C@H](N[C@@H]5C[C@H](C)N(C(=O)CC)c6ccccc65)CC4)nn3)cc2)C[C@@H]1C` [Compound 8a, (1R,4r)-4-(((2S,4R)-2-Methyl-1-propionyl-1,2,3,4-tetrahydroquinolin-4-yl)amino)-N-(2-(1-(4-(((2S,4R)-2-methyl-1-propionyl-1,2,3,4-tetrahydroquinolin-4-yl)amino)phenyl)-1H-1,2,3-triazol-4-yl)ethyl)cyclohexane-1-carboxamide], the IC90 with SU-DHL-4 cells was found to be 0.87 nM.
